Experimental data reported in ChEMBL document CHEMBL4417627, “Dab2 inhibitors for the prevention and treatment of cystic fibrosis” (2017).

Key:
Type in all cases: cell-based
[1] = Toxicity in human CFBE cells assessed as reduction in cell viability at 5 to 100 uM incubated for 3 hrs by MTT assay
[2] = Toxicity in human CFBE cells assessed as reduction in cell viability at 5 to 100 uM incubated for 12 hrs by MTT assay
[3] = Toxicity in human CFBE cells assessed as reduction in cell viability incubated for 3 hrs by LDH assay
[4] = Toxicity in human CFBE cells assessed as reduction in cell viability at 100 uM incubated for 3 hrs by LDH assay relative to control 1% triton
[5] = Toxicity in human CFBE cells assessed as reduction in cell viability incubated for 12 hrs by LDH assay
[6] = Toxicity in human CFBE cells assessed as reduction in cell viability at 40 uM incubated for 24 hrs by LDH assay relative to control 1% triton

SMILES | Activity [1] | Activity [2] | Activity [3] | Activity [4] | Activity [5] | Activity [6] [%]
CC1(C)Cc2ccccc2-c2n[nH]c(=S)n21 | Non-Toxic | Non-Toxic | Non-Toxic | <= 10% | Toxic | –
CN1CCc2cccc3c2[C@@H]1Cc1ccc(O)c(O)c1-3.Cl | Non-Toxic | Non-Toxic | Dose-dependent effect | – | Dose-dependent effect | –
C[C@]12CC[C@@H]3c4cc(O)c(O)cc4CC[C@H]3[C@@H]1CC[C@@H]2O | Non-Toxic | Non-Toxic | Dose-dependent effect | – | Dose-dependent effect | 20 to 40
